The results in this text go back to patent publication US10493074B2, “Specific trifluoroethyl quinoline analogue for use in the treatment of Sjögren's syndrome” (UCB Biopharma SPRL, priority 2015, dated 2019).

Experiment [1] has as its system T and B cells in cannulated salivary glands. Put plainly: FACS analysis of lymphocyte profile in salivary glands, inducible murine model of ectopic lymphoid tissue formation (Sjögren's syndrome model). Format: in vivo, mice (C57BL/6). The note with it: for number of T and B cells in cannulated salivary glands: day 15 post-cannulation, vs vehicle. Here is the method: N-{(R)-1-[8-Chloro-2-(1-oxypyridin-3-yl)quinolin-3-yl]-2,2,2-trifluoroethyl}-pyrido[3,2-d]pyrimidin-4-ylamine [hereinafter referred to as “Compound (A)”] was investigated in vivo in an inducible model of ectopic lymphoneogenesis in murine salivary glands that mimics Sjögren's syndrome. The results obtained are depicted in the accompanying drawings, in which:
(§1) Compound (A) was assessed in the in vivo murine model of inducible ectopic lymphoid tissue formation described by M. Bombardieri et al. in J. Immunol., 2012, 189, 3767-3776, which is a recognised animal model of Sjögren's syndrome.
(§2) Briefly, wild type (C57BL/6) mice were given replication-defective adenovirus 5 (AdV5) (10^8 p.f.u.) via retrograde cannulation of submandibular gland excretory ducts and sacrificed at specific time points post-cannulation. Compound (A), or vehicle control, was administered by gavage daily both prophylactically and therapeutically, starting at either day 0 or day 3 post-cannulation respectively. In order to assess immune cell status in isolated murine salivary glands, flow cytometry on single cell suspensions and quantitative real time PCR were used to evaluate protein and mRNA expression in the samples.
Replication-defective AdV5-infused salivary glands from mice dosed with either Compound (A) or vehicle were isolated from culled mice at different time points. Glands were dissected and placed in RPMI-1640 (with 2% FCS) (1 mL) on ice. Once all salivary glands were collected, RPMI-1640 was removed and replaced with enzyme mix (RMPI with 2% FCS, 0.8 mg/mL Dispase, 0.2 mg/mL Collagenase P, and 0.1 mg/mL DNase I) (2 mL). Salivary glands were cut into small pieces and tubes were incubated at 37° C. in a water bath, with magnetic stirrers. After 20 minutes, salivary gland fragments were very gently pipetted, using a 1 mL pipette, to disrupt the tissue further and release most cells. The mixture was replaced in the water bath and large fragments were allowed to settle for 30 s, after which time the enzyme mix was removed. […] Cells were filtered through 70 μm nylon mesh and counted using a haemocytometer. […]

The test system of experiment [2] is TLO (tertiary lymphoid organ) associated genes. Put plainly: Quantitative RT-PCR of TLO associated genes in salivary glands, inducible murine model of ectopic lymphoid tissue formation (Sjögren's syndrome model). Format: in vivo, mice (C57BL/6). Here is the method:
Quantitative RT-PCR analysis of mRNA transcripts coding for indicated genes, normalised to housekeeping gene. The relative expression values presented as RQ were calibrated with day 0 post-cannulation salivary gland values.
as §1, §2

As for `[O-][n+]1cccc(-c2nc3c(Cl)cccc3cc2[C@@H](Nc2ncnc3cccnc23)C(F)(F)F)c1` [Compound (A), N-{(R)-1-[8-Chloro-2-(1-oxypyridin-3-yl)quinolin-3-yl]-2,2,2-trifluoroethyl}-pyrido[3,2-d]pyrimidin-4-ylamine], in experiment [1] (dosed either prophylactically or therapeutically, overall conclusion from the model), the “disaggregation of the inflammatory foci and resolution of salivary gland inflammation” value is “effective”. For the same compound, the “number of T and B cells in cannulated salivary glands” value in experiment [1] (treated prophylactically from day 0, by gavage daily, flow cytometry (FIG. 1)) is on record as “significant decrease”; in experiment [1] (treated therapeutically from day 3 post-cannulation, by gavage daily, flow cytometry (FIG. 2)), “significant decrease”. The “gene expression profile of TLO associated genes” value in experiment [2] (treated prophylactically from day 0, day 15 post-cannulation, vs vehicle (FIGS. 3 & 4)) is “significantly inhibited”; in experiment [2] (treated therapeutically from day 3 post-cannulation, day 15 post-cannulation, vs vehicle (FIG. 4)) it was “decrease was conserved”.
